Assay results as given in publication PMC6880192, “Structure–Effect Relationships of Novel Semi-Synthetic Cannabinoid Derivatives” (Frontiers in Pharmacology, 2019).
Entries after “also recorded” stand apart in the source; their conditions may differ.

Tests used:
[1] = target: T1, CB2-receptor (Homo sapiens, UniProt P34972); assay: Competition binding against [3H]-CP55940, CB2 membranes; conditions: for Selectivity CB2/CB1: ratio of Ki values; for Ki: mean ± SEM, n = 3, radioligand [3H]-CP55940
T1 construct: expressed in transfected cells; host or cells: CHO cells, stably transfected with CB2 cDNA (from IMIBIC) and transiently with CRE-luc
T1 sequence (P34972 whole entry): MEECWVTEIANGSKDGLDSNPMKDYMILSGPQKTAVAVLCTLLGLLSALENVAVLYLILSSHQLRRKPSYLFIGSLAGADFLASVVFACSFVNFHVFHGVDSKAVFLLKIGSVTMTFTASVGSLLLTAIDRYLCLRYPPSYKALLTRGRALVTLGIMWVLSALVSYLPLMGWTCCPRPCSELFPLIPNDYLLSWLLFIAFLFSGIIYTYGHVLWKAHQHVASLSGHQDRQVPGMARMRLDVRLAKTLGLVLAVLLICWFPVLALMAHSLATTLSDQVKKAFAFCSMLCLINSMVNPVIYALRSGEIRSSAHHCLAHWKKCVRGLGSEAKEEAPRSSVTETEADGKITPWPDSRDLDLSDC

[2] = target: T2, CB1-receptor (Homo sapiens, UniProt P21554); assay: cAMP-dependent luciferase assay in CHO-CB1-CRE-luc cells; format: cell-based; conditions: for Effect on CB1: CHO-CB1-CRE-luc, summary classification; for CB1-receptor antagonistic activity (fold induction of CRE-luc): 15 min pre-incubation, then 1 µmol/L WIN for 6 h
T2 construct: expressed in transfected cells; host or cells: CHO cells, stably transfected with CB1 cDNA (from IMIBIC) and transiently with CRE-luc
T2 sequence (P21554 whole entry): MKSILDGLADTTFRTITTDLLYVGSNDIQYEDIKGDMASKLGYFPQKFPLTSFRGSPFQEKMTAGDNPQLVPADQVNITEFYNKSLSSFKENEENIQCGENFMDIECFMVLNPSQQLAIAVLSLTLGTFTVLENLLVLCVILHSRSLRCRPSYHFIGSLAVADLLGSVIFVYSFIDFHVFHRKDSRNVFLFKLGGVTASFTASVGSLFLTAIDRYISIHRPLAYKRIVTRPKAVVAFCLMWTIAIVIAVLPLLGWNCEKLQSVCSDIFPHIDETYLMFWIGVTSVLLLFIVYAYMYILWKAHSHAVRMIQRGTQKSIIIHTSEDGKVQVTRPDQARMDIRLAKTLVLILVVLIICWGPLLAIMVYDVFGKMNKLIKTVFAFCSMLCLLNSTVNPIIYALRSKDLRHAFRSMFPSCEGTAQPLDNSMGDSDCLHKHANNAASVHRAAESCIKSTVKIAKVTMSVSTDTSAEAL
Protocol: (§1) Briefly, CHO cells were stably transfected with CB1- and CB2-receptor complementary DNAs (cDNAs) (kindly provided by IMIBIC). Around 10^5 transfected cells per milliliter were seeded in 24-well plates and transiently transfected with the plasmid CRE-luc using Roti-Fect (Carl Roth, Karlsruhe) following the manufacturer’s instructions. The cells were harvested after 24 h. Two transfected cell types resulted: CHO-CB1-CRE-luc and CHO-CB2-CRE-luc.
(§2) To test for agonistic activity at the CB1-receptor, the CHO-CB1-CRE-luc cells were stimulated for 6 h with increasing concentrations of the test compounds ([Bouaboula et al. 1997]). Forskolin (FSK), a strong CB-receptor-independent activator of adenylyl-cyclase was used at 10 µmol/L as a positive control. To investigate the antagonistic activity, the CHO-CB1-CRE-luc cells were pre-incubated for 15 min with the test compounds before stimulation for 6 h with 1 µmol/L WIN ([Zheng et al. 2013]). To investigate CB2-receptor agonistic activity, CHO-CB2-CRE-luc cells were pre-incubated for 15 min with increasing concentrations of the test substances and then for 6 h with 10 µmol/L FSK. WIN, a non-specific agonist at CB2-receptors, was used as a positive control. To confirm CB2-receptor agonistic activities of the test compounds, CHO-CB2-CRE-luc cells were pre-incubated with the specific CB2-receptor antagonist AM630 (1 µmol/L, 6-iodopravadoline; Cayman, distributed by Biozol, Hamburg) ([Ross et al. 1999]; [Zheng et al. 2013]) and then treated with increasing concentrations of the test substances.
(§3) After the stimulations and incubations, cells were lysed in a solution of 25 mmol Tris-phosphate (pH = 7.8), 8 mmol MgCl2, 1 mmol dithiothreitol (DTT), 1% Triton X-100, and 7% glycerol. The luciferase activity was measured with a Luciferase Assay Kit (Promega, Madison) according to the manufacturer’s instructions using an AutoLumat LB 9501 (Berthold Technologies, Bad Wildbad).

[3] = tested on: primary human monocytes; assay: Anti-inflammatory effect on LPS-treated monocytes (ELISA); format: cell-based
Protocol: Human peripheral blood monocytes were prepared from healthy donors who provided written informed consent at the local blood bank (University Hospital of Freiburg, Germany). Mononuclear cells were isolated by density gradient centrifugation according to standard protocol ([English and Andersen, 1974]) using lymphocyte separation medium, (PAN Biotech, Aidenbach). Cells were resuspended in RPMI-1640 medium (Invitrogen/Thermo Fisher Scientific, Karlsruhe) containing 10% human serum (Hexacell, Berlin). About 5 × 10^5 cells per milliliter were seeded in 24-well plates and incubated at 37°C and 5% CO2. The medium and the non-adherent cells were removed by washing with PBS and fresh RPMI medium, and 1% human serum was added to each well.
To test the anti-inflammatory effect of the test compounds, monocytes were incubated for 30 min with increasing doses of the test compounds. Then lipopolysaccharide (LPS) (10 ng/ml; Escherichia coli, Sigma-Aldrich, St. Louis) was added followed by a 24 h incubation period. The supernatants were removed and the levels of IL-1β, IL-6, IL-8, TNF-α, and prostaglandin E2 (PGE2) determined by enzyme-linked immunosorbent assay (ELISA) performed according to the manufacturer’s instructions (IL-1β from Hiss, Freiburg; IL-6, IL-8, and TNF-α from ImmunoTools, Friesoythe; and PGE2 from Cayman, distributed by Biozol, Hamburg). Stimulation with LPS alone was considered 100%.

[4] = tested on: NFAT; assay: PMA/IO-induced NFAT-luc activation in Jurkat T-cells; format: cell-based; conditions: 0.5–25 µmol/L
Protocol: (§4) Jurkat T-cells (10^6 cells per milliliter) were transiently transfected with plasmids that contained an NF-κB-dependent (KBF-luc) or NFAT-dependent (NFAT-luc) promotors fused to the luciferase gene using Lipofectin (Life Technologies, Carlsbad) according to the manufacturer’s instructions ([Yano et al. 1987]; [Durand et al. 1988]). Twenty-four hours after transfection, cells were stimulated for 30 min with increasing doses of the test compounds or WIN as a control (Tocris, Bristol). Then PMA (50 ng/ml)—for NFAT-luc—plus ionomycin (0.5 µg/ml) (Sigma-Aldrich, St. Louis) was added, followed by a 6 h incubation period.
as §3

[5] = target: T1, CB2-receptor; assay: cAMP-dependent luciferase assay in CHO-CB2-CRE-luc cells; format: cell-based; conditions: for CB2-receptor agonistic activity (fold induction of CRE-luc): 15 min pre-incubation, then 10 µmol/L FSK for 6 h; for Effect on CB2: CHO-CB2-CRE-luc, summary classification; for CB2 agonistic effect compared with positive control WIN: same dose as 1 µmol/L WIN
Protocol: as §1, §2, §3

[6] = tested on: RAW264.7 macrophages; assay: MTT cytotoxicity assay; format: cell-based; conditions: RAW264.7, concentrations of 5 and 10 µmol/L
From the text: Cytotoxicity tests were done on CHO cells, Jurkat T-cells, or RAW264.7 macrophages using the MTT assay (Sigma-Aldrich, St. Louis) and on primary human monocytes with the alamarBlue assay (Thermo Fisher Scientific, Karlsruhe).

[7] = target: T2, CB1-receptor; assay: biochemical; format: binding; conditions: mean ± SEM, n = 3; radioligand [3H]-CP55940
[8] = tested on: NF-κB; assay: PMA-induced NF-κB-luc (KBF-luc) activation in Jurkat T-cells; format: cell-based; conditions: 0.5–25 µmol/L
Protocol: as §4, §3

[9] = tested on: RAW264.7 macrophages; assay: IL-17-induced polarization to pro-inflammatory M1 macrophages (qPCR); format: cell-based; conditions: RAW264.7, 0.5 to 10 µmol/L
Protocol: To assess the IL-17-induced polarization to pro-inflammatory M1 macrophages, RAW264.7 macrophages (10^6 cells per Petri dish) were incubated for 18 h with or without the test compounds containing 0.1% FBS. Subsequently, they were stimulated for 24 h with recombinant murine IL-17 (50 ng/ml; R&D Systems, Minneapolis). The CB2-receptor agonist JWH-133 was used as a positive control. Then, the messenger RNA (mRNA) was extracted using RNeasy Mini Kits (Qiagen, Hilden), and its purity determined by UV measurements at 260 and 280 nm. The induction of IL-6, IL-1β, CC-chemokine ligand 2 (CCL2), and tumor necrosis factor (TNF)-α mRNA was assessed as markers of pro-inflammatory activity using quantitative real-time polymerase chain reactions (qPCRs).
mRNA reverse transcription in cDNA was performed with iQ™ SYBR Green Supermix and the CFX96 real-time PCR system (Bio-Rad, Hercules). The amplification consisted of a 5 min denaturation at 95°C followed by 40 cycles each of 30 s at 95°C and 30 s at 55°C (annealing). Elongation for 30 s at 72°C came next, followed by a cycle for 10 s at 83°C and finally a cycle for 1 min at 72°C. Calculations were made according to the Livak method by quantifying glyceraldehyde 3-phosphate dehydrogenase (GAPDH) as a reference ([Schmittgen and Livak 2008]). The results are given as multiples of the reference gene ([…]).

[10] = tested on: CB1-/CB2-receptors; set-up: method as in Rosenthaler et al. 2014; conditions: ref Rosenthaler et al. 2014; cited from earlier work

Row | Structure (SMILES) | Selectivity CB2/CB1 [1] | Effect on CB1 [2] | LPS-induced IL-1β release ([3]; LPS 10 ng/ml, 24 h) | LPS-induced IL-6 release ([3]; LPS 10 ng/ml, 24 h) | LPS-induced TNF-α release ([3]; LPS 10 ng/ml, 24 h) | Inhibition of PMA/IO-induced NFAT activation [4] | CB2-receptor agonistic activity (fold induction of CRE-luc) [5] | Effect on CB2 [5] | CB2 agonistic effect compared with positive control WIN [5] | Effect on cell viability [6] | LPS-induced IL-8 release ([3]; LPS 10 ng/ml, 24 h) | Ki [1] [nM] | CB1-receptor antagonistic activity (fold induction of CRE-luc) [2] | Ki [7] [nM] | Inhibition of PMA-induced NF-κB activation [8] | IL-17-stimulated CCL2 mRNA expression [9] | IL-17-stimulated IL-1β mRNA expression [9] | other results
1 | C=C(C)[C@@H]1CCC(C)=C[C@H]1c1c(O)cc(CCCCC)c(C(=O)OCCO)c1O [2-HEC (1), 2-hydroxyethyl cannabidiolate] | 10.5 | Antagonist | significantly inhibited | significantly inhibited | significantly inhibited | significantly inhibited | dose dependency | Agonist | as strong as the same dose of the positive control | negative effect on cell viability | – | – | – | – | – | – | – | –
2 | C=C(C)[C@@H]1CCC(C)=C[C@H]1c1c(O)cc(CCCCC)c(C(=O)OCC(O)CO)c1O (stereo partly drawn) [GCBD (3), 2,3-dihydroxypropyl cannabidiolate] | 7.8 | Antagonist | significantly inhibited | significantly inhibited | significantly inhibited | significantly inhibited | dose-dependent agonistic effects | Agonist | – | negative effect on cell viability | costimulated | – | – | – | – | – | – | –
3 | C=C(C)[C@@H]1CCC(C)=C[C@H]1c1c(O)cc(CCCCC)c(C(=O)OCCCCCC)c1O [HC (5), n-hexyl-cannabidiolate] | 37.3 | Antagonist | inhibited at higher doses | dose-dependently inhibited | dose-dependently inhibited | no inhibition | did not activate | No activity | – | – | inhibited at higher doses | 67 ± 4 | dose-dependent activity | 2500 | only marginal | inhibited | inhibited | IL-17-stimulated IL-6 mRNA expression [9]: dose-dependent reduction
4 | C=C(C)[C@@H]1CCC(C)=C[C@H]1c1c(O)cc(CCCCC)c(C(=O)OC2CCCCC2)c1O [CHC (4), cyclohexyl cannabidiolate] | 1.7 | Agonist | reduced | moderately and dose-dependently inhibited | reduced | did not inhibit | – | Agonist | as strong as the same dose of the positive control | – | moderately and dose-dependently inhibited | 510 ± 290 | negative | 870 ± 100 | did not inhibit | inhibited | inhibited | CB1-receptor agonistic activity (fold induction of CRE-luc) ([2]; 6 h stimulation with test compound): activate CB1-receptors; Anti-inflammatory effects overall ([3]; LPS 10 ng/ml, 24 h): only very weak anti-inflammatory effects
5 | C=C(C)[C@@H]1CCC(C)=C[C@H]1c1c(O)cc(CCCCC)c(C(=O)OCC(O)CCC)c1O (stereo partly drawn) [2-HPC (2), 2-hydroxypentyl cannabidiolate] | – | Antagonist | – | significantly inhibited | significantly inhibited | significantly inhibited | – | Agonist | – | negative effect on cell viability | – | – | – | – | – | – | – | LPS-stimulated IL-8 synthesis ([3]; dose of 1 µmol/L): inhibited; LPS-stimulated PGE2 synthesis ([3]; dose of 1 µmol/L): inhibited
6 | C=C(C)[C@@H]1CCC(C)=C[C@H]1c1c(O)cc(CCC)cc1O [CBDV, (-)-trans-cannabidivarin] | – | – | – | – | – | – | – | – | – | – | – | – | – | – | – | – | – | Affinity for CB1-/CB2-receptors [10]: poor affinity
7 | C=C(C)[C@@H]1CCC(C)=C[C@H]1c1c(O)cc(CCCCC)c(C(=O)OCCNS(C)(=O)=O)c1O [NMSC (6), 2-(methylsulfonamido)ethyl cannabidiolate] | 22.5 | Antagonist | enhanced | – | significantly reduced | significantly inhibited | – | Agonist | similarly strongly agonistic | – | significantly reduced | 12 ± 1 | dose-dependent activity; also recorded: strongly CB1 antagonistic | 270 ± 40 | inhibited | reduced compared to the control at all concentrations | inhibited TNF-α and IL-1β only at low doses | preference for the CB2-receptor ([1]; CB2 over CB1): 22.5 fold; LPS-induced PGE2 release ([3]; LPS 10 ng/ml, 24 h): significantly reduced; IL-17-stimulated IL-6 mRNA expression [9]: co-stimulated; IL-17-stimulated TNF-α mRNA expression [9]: inhibited TNF-α and IL-1β only at low doses
8 | C=C(C)[C@@H]1CCC(C)=C[C@H]1c1c(O)cc(CCCCC)cc1O [CBD, (-)-trans-cannabidiol] | – | – | – | – | – | – | – | – | – | – | – | – | – | – | – | – | – | Affinity for CB1-/CB2-receptors [10]: poor affinity
